Source: PubChem BioAssay AID1259418 (Broad Institute, 2018)
Where “and” joins values, the source holds several entries; their conditions need not be identical. Equal values may be shown once. Records with an inconclusive call do not appear. Calls of active or inactive are those of the source.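 How the source made its calls: active means fitted half-maximal concentration of signal decrease at or below twice the sample's top tested concentration; inconclusive means flat curve between -70 and -30 percent, or poor fit; inactive means flat within 30 percent, signal rise, or potency above limit.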 Starred links: 1 amine or outer side, 2 acyl side, 3 side chain; linkers in the order of their positions; H or OH if unused. Non-standard residues stand in square brackets, D forms with d. Residues, ends and D or L forms follow the SMILES beside them. Groups on a side chain read outwards from the residue. *: point of attachment. Ethylenediamine = C(CN[*:2])N[*:1]; Hyp = O=C(O)[C@@H]1C[C@@H](O)CN1; Phg = N[C@H](C(=O)O)c1ccccc1; CO = O=C([*:1])[*:2]; Bn = c1ccc(C*)cc1

biological target: T. gondii ME49Luc in IFN-y HeLa, luciferase, 72 h; assay: inhibitors of Toxoplasma growth in IFN-γ-primed HeLa – cell-based, ME49Luc, luciferase, 72 h, dose response (AID 1259418)

| SMILES | AC50 |
| --- | --- |
| Cc1ccc(CCNc2nc(-c3ccc(Cl)cc3)nc3ccccc23)cc1 | 22.7 µM |
| Cc1ccccc1Cn1c(CN2CCC(C(=O)NCCCN3CCCC3)CC2)cc2ccccc21 | 18.2 µM |
| CCCCN(C)C(=O)c1cnc(-c2noc3cc(NCC4CC4)ccc23)s1 | 6.44 µM and 21.7 µM |
| COc1ccc(CNC2=NCCNC23CCN(S(=O)(=O)c2ccc(CC(C)C)cc2)CC3)cc1 | 6.46 µM |
| CCC[C@@]1(CCc2ccccc2)CC(=O)C([C@H](CC)c2cccc(NS(=O)(=O)c3ccc(C(F)(F)F)cn3)c2)C(=O)O1 (some centres not stated) | 17.3 µM |
| O=S(=O)(c1cccs1)N1CCCCN2[C@H](C1)[C@@H](c1ccc(/C=C/c3ccccc3)cc1)[C@@H]2CO | 15.3 µM |
| Cc1ccc(N2CC(NC(=O)C(=O)c3c[nH]c4ccccc34)CC2=O)cc1 (configuration not stated) | > 39 µM (inactive) |
| CC(C)CC#Cc1ccc([C@H]2[C@H]3CN(C(=O)c4cccc(F)c4)CC(=O)N3[C@H]2CO)cc1 | 20.3 µM |
| Cc1ccc(S(=O)(=O)N2CCC3(CC2)NCCN=C3NCc2ccc(Cl)cc2)cc1C | 8.04 µM |
| Cc1ccc2c(c1C)-n1cccc1C1(CCN(C(=O)c3ccccc3Br)CC1)N2 | 17.7 µM |
| COc1ccccc1-c1noc(-c2nnn(Cc3nc(-c4ccc(C)cc4)oc3C)c2C)n1 | 15 µM |
| Cc1nc(OCC(=O)Nc2cccc(F)c2)c2ccccc2n1 | 28.8 µM |
| CC(C)c1ccc(S(=O)(=O)N2CCC3(CC2)NCCN=C3NCc2ccc3c(c2)OCO3)cc1 | 33.6 µM |
| Cc1ccc(S(=O)(=O)Nc2ccc3c(c2)C(=O)N([C@@H](C)CO)C[C@H](C)[C@H](CN(C)Cc2ccc(C(F)(F)F)cc2)O3)cc1 | 18.2 µM |
| CCCCCCCCCCCCCCCC[N+](C)(C)C | 16.3 µM |
| Cc1ccccc1Cn1c(CN2CCC(C(=O)NCCCN3CCCC3=O)CC2)cc2ccccc21 | > 39 µM (inactive) |
| COc1ccc(Cc2cnc(N)nc2N)cc1OC | 23.2 µM |
| COc1ccc(-c2nc(N3CCN(C4CCCCC4)CC3)c3ccccc3n2)cc1 | 30.1 µM |
| COc1ccc(CNC(=O)CC2N=C3c4ccccc4N=C(SCc4ccc(F)cc4)N3C2=O)cc1 (configuration not stated) | 22.6 µM |
| O=C(Nc1cccnc1)c1cc(-c2cnc(-c3ccccc3)nc2)cn1CC1CC1 | 34.2 µM and 26.9 µM |
| CCc1c(C)sc2c1CCN(Cc1nc(-c3ccc(OC(C)C)cc3)oc1C)C2c1ccccc1 (configuration not stated) | > 39 µM (inactive) |
| O=C(Cc1cccnc1)N1CC(=O)N2[C@H](CO)[C@@H](c3ccc(/C=C/c4ccccc4)cc3)[C@@H]2C1 | 19.3 µM |
| NCCCC[C@@H]1NC(=O)[C@@H](Cc2c[nH]c3ccccc23)NC(=O)[C@H](c2ccccc2)NC(=O)[C@@H]2C[C@@H](OC(=O)NCCN)CN2C(=O)[C@H](Cc2ccccc2)NC(=O)[C@H](Cc2ccc(OCc3ccccc3)cc2)NC1=O (cyclo([Hyp]([CO-Ethylenediamine])[Phg][dW]KY(Bn)F)) | 15.9 µM |

| SMILES | AC50 |
| --- | --- |
| CCc1ccc(S(=O)(=O)N2CCC3(CC2)NCCN=C3NCc2ccc(F)cc2)cc1 | 6.64 µM |
| CCOc1ccccc1-c1nc(CN(c2ccc(OC)cc2)S(=O)(=O)c2ccc(C)cc2)c(C)o1 | 10.7 µM |
| COc1cccc(-c2ccc(C3[C@@H]4CN(S(=O)(=O)Cc5ccccc5)C[C@H]3N4)cc2)c1 (some centres not stated) | 12.3 µM and 15.7 µM |
| Cc1ccc(-c2nc(CN3CCN(C(=O)Nc4cccc(Cl)c4)CC3)c(C)o2)cc1 | > 39 µM (inactive) |
| COc1ccccc1-c1noc(-c2nnn(Cc3nc(-c4ccccc4OC)oc3C)c2C)n1 | > 39 µM (inactive) |
| Cc1ccc(C(=O)Nc2c(C(=O)NCc3ccccn3)[nH]c3ccc(C)cc23)cc1 | 25.3 µM |
| COc1ccc(-c2nc(N3CCC(N4CCCCC4)CC3)c3ccccc3n2)cc1 | 10.6 µM |
| CCCNC(=O)c1cc(-c2ccn(CC3CC3)n2)n2ccccc12 | 26.9 µM |
| Fc1ccccc1CSc1nc(NCc2ccccc2)c2ccccc2n1 | 17.9 µM |
| COc1cccc(CNC2=NCCNC23CCN(S(=O)(=O)c2ccc(Cl)s2)CC3)c1 | 11.6 µM |
| O=C(CCn1cnc2cc(-c3noc(-c4cc5cc(Cl)ccc5[nH]4)n3)ccc21)N1CCCC1 | 23.7 µM |
| COc1cc(NC(=O)Nc2ccc(-c3nc(-c4cc(C)ccc4C)co3)cc2)cc(OC)c1OC | 14.5 µM |
| COc1ccc(-c2nc(NCCN3CCOCC3)c3ccccc3n2)cc1 | 14.2 µM |
| COc1ccc(N(Cc2nc(-c3ccccc3OC)oc2C)S(=O)(=O)c2ccc(C)cc2)cc1 | 19.3 µM |
| Cc1oc(-c2ccccc2)nc1CSc1nc2c(c(=O)[nH]1)CN(Cc1ccccc1)CC2 | 15.4 µM |
| Cc1cccc(-c2nc(CSc3nc4c(c(=O)[nH]3)CN(Cc3ccccc3)CC4)c(C)o2)c1 | > 39 µM (inactive) |
| C[C@@H]1CN([C@@H](C)CO)C(=O)Cc2cc(NC(=O)C3CCCCC3)ccc2O[C@@H]1CN(C)Cc1ccc(Cl)c(Cl)c1 | 15.1 µM and 5.01 µM |
| OC[C@H]1Nc2ccc(C#Cc3ccc(F)cc3)cc2[C@H]2[C@@H]1CCN2Cc1ccc2c(c1)OCO2 | 20 µM |
| CC(C)n1cnc2c(NCC3CC3)nc(C3CCN(C(=O)c4ccccc4)CC3)cc21 | 21.7 µM |
| Cc1ccccc1-c1ccc(C2[C@H]3CNC[C@@H]2N3Cc2ccc3c(c2)OCO3)cc1 (some centres not stated) | > 39 µM (inactive) |
| Cc1ccc(C)c(NC(=O)N2CCN(Cc3nc(-c4cccc(Cl)c4)oc3C)CC2)c1 | > 39 µM (inactive) |
| CC(C)(Cc1ccc2ccccc2c1)NC[C@@H](O)COc1cccc(Cl)c1C#N | 13.3 µM |
| CCOc1ccc(-c2nc(CN(c3cccc(OC)c3)S(=O)(=O)c3ccccc3)c(C)o2)cc1 | 6.87 µM |

| SMILES | AC50 |
| --- | --- |
| Cc1cc(C)c(S(=O)(=O)N2CCC3(CC2)NCCN=C3NCc2cc(F)cc(F)c2)cc1C | 7.83 µM |
| Fc1ccccc1CSc1nc(NCc2ccc(Cl)cc2)c2ccccc2n1 | 17.4 µM |
| Cc1ccc(-c2noc(-c3ccc(N4CCC(N5CCCCC5)CC4)nc3)n2)cc1 | 24.8 µM |
| CCc1cnc(N2[C@H](CO)[C@@H](c3ccc(C#Cc4ccccc4F)cc3)[C@@H]2C#N)s1 | 21.3 µM |
| CCOc1ccc(-c2nc(CN3CCN(C(=O)Nc4ccc(C)cc4Cl)CC3)c(C)o2)cc1 | 24.1 µM |
| COc1ccc(-c2nc(NCCN3CCN(C)CC3)c3ccccc3n2)cc1 | 3.52 µM and 27.4 µM |
| CN1C(=O)c2cc(NC(=O)Cc3cccs3)ccc2OC[C@@H]2O[C@H](CC(=O)N[C@H]3CCN(Cc4ccccc4)C3)CC[C@@H]21 | 7.53 µM |
| O=C(CC1N=C2c3ccccc3N=C(SCc3ccc(Cl)cc3)N2C1=O)NCCc1ccccc1 (configuration not stated) | 20.4 µM |
| CN1C(=O)c2cc(NC(=O)c3cccc(F)c3)ccc2OC[C@@H]2O[C@H](CC(=O)NCC3CCCCC3)CC[C@@H]21 | 18.6 µM and 22.1 µM |
| CCc1nc(OCC(=O)Nc2ccccc2)c2ccccc2n1 | 27.7 µM |
| COCC(=O)N1CCC2(CC1)CN(Cc1nccs1)CCO2 | 17.9 µM |
| O=C(NCCc1csc(-c2ccccc2)n1)[C@H]1CCCN1C(=O)CCc1ccccc1 | > 39 µM (inactive) |
| CCc1ccc(S(=O)(=O)N2CCC3(CC2)NCCN=C3NC2CCCCCC2)cc1 | 5.05 µM |
| CCOc1ccc(-c2nc(CN3CCN(C(=O)Nc4ccc(F)cc4)CC3)c(C)o2)cc1 | 12.8 µM |
| C[C@H](NC(=O)C[C@H]1CC[C@@H]2[C@@H](COc3ccc(NS(=O)(=O)c4ccc(Cl)cc4)cc3C(=O)N2C)O1)c1ccccc1 | 11.1 µM and 18.1 µM |
| Cc1cccc(S(=O)(=O)N2C[C@H]3[C@@H](c4ccccc42)[C@@H](CO)N3C(=O)c2ccccc2)c1 | > 39 µM (inactive) |
| O=C(CCC1N=C2c3ccccc3N=C(SCc3cc(=O)n4cc(Cl)ccc4n3)N2C1=O)NCc1cccs1 (configuration not stated) | 32 µM |
| Cc1csc(-c2cc(S(=O)(=O)NCCCN3CCC(C)CC3)c(C)s2)n1 | > 39 µM (inactive) |
| O=C(NCCc1csc(-c2ccccc2)n1)C1CCN(C(=O)c2ccccc2Cl)CC1 | 25.8 µM |
| O=C(CC1N=C2c3ccccc3N=C(SCc3ccc(F)cc3)N2C1=O)NCc1ccco1 (configuration not stated) | 20.5 µM |
| Cc1ccc(CNC2=NCCNC23CCN(S(=O)(=O)c2ccc(CC(C)C)cc2)CC3)cc1 | 7.71 µM |
| Fc1cccc(CSc2nc(NC3CCCCC3)c3ccccc3n2)c1 | > 39 µM (inactive) |
| COc1ccccc1-c1ccc([C@@H]2[C@H](CO)N3CCCCN(C(=O)c4cccnc4)C[C@@H]23)cc1 | 17.2 µM |

| SMILES | AC50 |
| --- | --- |
| COC[C@]12CCC[C@@H]1CN(S(=O)(=O)c1cccc(OC)c1)C2 | 36.2 µM |
| CCCNC(=O)C[C@H]1CC[C@H]2[C@@H](COC[C@@H](O)CN2C(=O)Nc2ccc(Cl)c(Cl)c2)O1 | 25.9 µM |
| COc1cccc(N(Cc2nc(-c3cccc(C)c3)oc2C)S(=O)(=O)c2ccccc2)c1 | 8.5 µM |
| O=C(Nc1ccc(-c2nc(-c3ccccc3)co2)cc1)c1cccc(Cl)c1 | 35.3 µM |
| CCOc1ccccc1N(Cc1nc(-c2ccc(OC)cc2)oc1C)S(=O)(=O)c1ccccc1 | 6.35 µM |
| Cc1ccc2c(c1)c1ncn(Cc3nc(C(C)C)no3)c(=O)c1n2CC(=O)N1CCCC1 | 14.5 µM |
| O=C(CC1CCC2(CC1)CCN(c1ncc(F)cn1)CC2)N1CC=CC1 | 19.3 µM |
| CCN1CCCC1CNc1nc(-c2ccc(OC)cc2)nc2ccccc12 (configuration not stated) | 15.1 µM |
| COc1ccccc1CNC(=O)CC1N=C2c3ccccc3N=C(SCc3ccccc3Cl)N2C1=O (configuration not stated) | 20.4 µM |
| COc1ccc(OCC(=O)N2CCC3(CC2)Nc2cc(OC)ccc2-n2cccc23)cc1 | 38.3 µM |
| CCOc1ccc(-c2nc(CN(c3ccccc3)S(=O)(=O)c3cccs3)c(C)o2)cc1 | 15.2 µM |
| O=C(NCCc1csc(-c2ccccc2)n1)[C@H]1CCCN1C(=O)Cc1ccc(Cl)cc1 | > 39 µM (inactive) |
| Cc1ccc(S(=O)(=O)N2CCC3(CC2)NCCN=C3NCc2ccc(F)c(Cl)c2)c(C)c1 | 6.21 µM |
| CC(C)n1cnc2c(NCC3CC3)nc(C3CCN(C(=O)c4cccc(F)c4F)CC3)cc21 | 19.8 µM |
| Clc1ccc(-c2nc(N3CCC(N4CCCCC4)CC3)c3ccccc3n2)cc1 | 18.4 µM |
| Cc1ccc(CNC2=NCCNC23CCN(S(=O)(=O)c2ccc(C)c(C)c2)CC3)cc1 | 7.83 µM |
| O=C1CNC[C@H]2[C@@H](c3ccc(C#Cc4cccnc4)cc3)[C@@H](CO)N12 | 26.8 µM |
| Cc1ccc(C)c(S(=O)(=O)N2CCC3(CC2)NCCN=C3NCc2ccccc2Cl)c1 | 5.36 µM |
| CCN(CC)CCO[C@H]1CC[C@@]2(C)C(=CC[C@@H]3[C@@H]2CC[C@]2(C)C(=O)CC[C@@H]32)C1 | 12 µM |
| CCOc1ccc(-c2nc(CN(c3cccc(OC)c3)S(=O)(=O)c3ccccc3C)c(C)o2)cc1 | 34.5 µM |
| CCc1ccccc1S(=O)(=O)N1CCc2nc(-c3ccc(OC)cc3)sc2C1 | 7.8 µM and 14.9 µM |
| O=C(NCCc1csc(-c2ccccc2)n1)C1CCN(C(=O)Cc2cccc(F)c2)CC1 | 2.76 µM |
| Cc1ccc(-c2nc(CN3CCN(C(=O)NCCc4ccccc4)CC3)c(C)o2)cc1 | > 39 µM (inactive) |
